Legend:
Btk = Btk (Homo sapiens (Human), UniProt Q06187); assay: Bruton's Tyrosine Kinase (Btk) inhibition assay (FRET BTK); assay type: biochemical
[1] = test system: B cells in human whole blood (CD69 expression); assay: Inhibition of B cell activation in whole blood measured by CD69 expression; assay type: cell-based; details: anti-IgM stimulation, CD69-positive CD20-positive cells
Protocol: Inhibition of B Cell Activation in Whole Blood Measured by CD69 Expression
A procedure to test the ability of Btk inhibitors to suppress B cell receptor-mediated activation of B cells in human blood is as follows:
Human whole blood (HWB) is obtained from healthy volunteers, with the following restrictions: 24 hr drug-free, non-smokers. Blood is collected by venipuncture into Vacutainer tubes anticoagulated with sodium heparin. Test compounds are diluted to ten times the desired starting drug concentration in PBS (20×), followed by three-fold serial dilutions in 10% DMSO in PBS to produce a nine point dose-response curve. 5.5 μl of each compound dilution is added in duplicate to a 2 ml 96-well V bottom plate (Analytical Sales and Services, #59623-23); 5.5 μl of 10% DMSO in PBS is added to control and no-stimulus wells. HWB (100 μl) is added to each well, and after mixing the plates are incubated at 37 C, 5% CO2, 100% humidity for 30 minutes. Goat F(ab′)2 anti-human IgM (Southern Biotech, #2022-14) (10 μl of a 500 μg/ml solution, 50 μg/ml final concentration) is added to each well (except the no-stimulus wells) with mixing and the plates are incubated for an additional 20 hours.
At the end of the 20 hour incubation, samples are incubated with florescent-probe-labeled anti-bodies (15 μl PE Mouse anti-Human CD20, BD Pharmingen, #555623, and/or 20 ul APC Mouse anti-Human CD69, BD Pharmingen #555533) for 30 minutes, at 37 C, 5% CO2, 100% humidity. Included are induced control, unstained and single stains for compensation adjustments and initial voltage settings. Samples are then lysed with 1 ml of 1× Pharmingen Lyse Buffer (BD Pharmingen #555899), and plates are centrifuged at 1800 rpm for 5 minutes. Supernatants are removed via suction and the remaining pellets are lysed again with another 1 ml of 1× Pharmingen Lyse Buffer, and plates are spun down as before. Supernatants are aspirated and remaining pellets are washed in FACs buffer (PBS+1% FBS). After a final spin, the supernantants are removed and pellets are resuspended in 180 μl of FACs buffer. Samples are transferred to a 96 well plate suitable to be run on the HTS 96 well system on the BD LSR II flow cytometer.
Using appropriate excitation and emission wavelengths for the fluorophores used, data are acquired and percent positive cell values are obtained using Cell Quest Software. Results are initially analyzed by FACS analysis software (Flow Jo). […] The IC50 values are calculated using XLfit software version 3, equation 201.

Btk, sequence (Q06187 whole entry): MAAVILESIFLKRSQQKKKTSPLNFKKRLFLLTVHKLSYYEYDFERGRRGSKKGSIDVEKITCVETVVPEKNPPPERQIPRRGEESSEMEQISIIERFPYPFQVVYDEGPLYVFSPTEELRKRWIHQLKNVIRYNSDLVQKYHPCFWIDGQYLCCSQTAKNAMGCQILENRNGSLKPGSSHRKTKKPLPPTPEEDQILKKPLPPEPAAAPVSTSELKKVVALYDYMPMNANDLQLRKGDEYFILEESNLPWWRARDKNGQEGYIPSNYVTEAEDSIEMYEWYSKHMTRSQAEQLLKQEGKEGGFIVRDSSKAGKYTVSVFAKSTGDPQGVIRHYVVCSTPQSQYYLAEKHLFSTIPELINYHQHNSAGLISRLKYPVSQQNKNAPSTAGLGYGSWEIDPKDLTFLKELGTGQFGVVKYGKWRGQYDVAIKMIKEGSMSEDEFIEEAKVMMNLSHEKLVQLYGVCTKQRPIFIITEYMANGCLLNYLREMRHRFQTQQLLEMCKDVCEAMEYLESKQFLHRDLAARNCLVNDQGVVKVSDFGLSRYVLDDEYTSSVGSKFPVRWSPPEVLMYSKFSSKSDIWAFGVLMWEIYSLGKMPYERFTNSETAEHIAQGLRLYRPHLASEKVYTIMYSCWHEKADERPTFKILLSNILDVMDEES

Structure (SMILES) | IC50 (Btk) [nM] | IC50 [1] [nM]
CC(C)(C)c1ccc2c(=O)n(-c3cccc(-c4c[nH]c(C(N)=O)c4)c3CO)ncc2c1 [Compound I-3, 4-[3-(6-tert-Butyl-1-oxo-1H-phthalazin-2-yl)-2-hydroxymethyl-phenyl]-1H-pyrrole-2-carboxylic acid amide] | 27 | > 5000
Cn1cc(-c2cccc(-n3ncc4cc(C(C)(C)C)ccc4c3=O)c2CO)cc1C(N)=O [Compound I-4, 4-[3-(6-tert-Butyl-1-oxo-1H-phthalazin-2-yl)-2-hydroxymethyl-phenyl]-1-methyl-1H-pyrrole-2-carboxylic acid amide] | 11.6 | 3600
Cn1c(C(N)=O)ccc1-c1cccc(-n2ncc3cc(C(C)(C)C)ccc3c2=O)c1CO [Compound I-5, 5-[3-(6-tert-Butyl-1-oxo-1H-phthalazin-2-yl)-2-hydroxymethyl-phenyl]-1-methyl-1H-pyrrole-2-carboxylic acid amide] |  | 4370
Cc1nc(-c2cccc(-n3ncc4cc(C(C)(C)C)ccc4c3=O)c2CO)oc1C(N)=O [Compound I-6, 2-[3-(6-tert-Butyl-1-oxo-1H-phthalazin-2-yl)-2-hydroxymethyl-phenyl]-4-methyl-oxazole-5-carboxylic acid amide] | 1260 | > 5000
CC(C)(C)c1cc(F)c2c(=O)n(-c3cccc(-c4nc(C(N)=O)cs4)c3CO)ncc2c1 [Compound I-7, 2-[3-(6-tert-Butyl-8-fluoro-1-oxo-1H-phthalazin-2-yl)-2-hydroxymethyl-phenyl]-thiazole-4-carboxylic acid amide] | 130 | > 5000
Cn1cc(-c2cccc(-n3ncc4cc(C(C)(C)C)cc(F)c4c3=O)c2CO)nc1C(N)=O [Compound I-8, 4-[3-(6-tert-Butyl-8-fluoro-1-oxo-1H-phthalazin-2-yl)-2-hydroxymethyl-phenyl]-1-methyl-1H-imidazole-2-carboxylic acid amide] | 18.2 | 1910
Cn1cc(-c2cccc(-n3ncc4cc(C(C)(C)C)cc(F)c4c3=O)c2CO)cc1C(N)=O [Compound I-9, 4-[3-(6-tert-Butyl-8-fluoro-1-oxo-1H-phthalazin-2-yl)-2-hydroxymethyl-phenyl]-1-methyl-1H-pyrrole-2-carboxylic acid amide] | 2.51 | 1260
CC(C)(C)c1cc(F)c2c(=O)n(-c3cccc(-c4ccc(C(N)=O)o4)c3CO)ncc2c1 [Compound I-10, 5-[3-(6-tert-Butyl-8-fluoro-1-oxo-1H-phthalazin-2-yl)-2-hydroxymethyl-phenyl]-furan-2-carboxylic acid amide] | 832 | > 5000
CC(C)(C)c1cc(F)c2c(=O)n(-c3cccc(-c4coc(C(N)=O)c4)c3CO)ncc2c1 [Compound I-11, 4-[3-(6-tert-Butyl-8-fluoro-1-oxo-1H-phthalazin-2-yl)-2-hydroxymethyl-phenyl]-furan-2-carboxylic acid amide] | 51.4 | > 500
Cn1cc(-c2cccc(-n3ncc4cc(C(C)(C)C)cc(CO)c4c3=O)c2CO)cc1C(N)=O [Compound I-12, 4-[3-(6-tert-Butyl-8-hydroxymethyl-1-oxo-1H-phthalazin-2-yl)-2-hydroxymethyl-phenyl]-1-methyl-1H-pyrrole-2-carboxylic acid amide] | 696 | > 500
CN1Cc2cc(C(C)(C)C)ccc2C(=O)N1c1cccc(-c2cc(C(N)=O)n(C)c2)c1CO [Compound I-14, 4-[3-(6-tert-Butyl-3-methyl-1-oxo-3,4-dihydro-1H-phthalazin-2-yl)-2-hydroxymethyl-phenyl]-1-methyl-1H-pyrrole-2-carboxylic acid amide] | 26.7 | 4740

Results, then the compound that gave them:

IC50 (Btk) [nM] | IC50 [1] [nM] | Structure (SMILES)
 | 2660 | CC(C)(C)c1cc(F)c2c(=O)n(-c3cccc(-n4cc(C(N)=O)c5ccccc54)c3CO)ncc2c1 [Compound I-17, 1-[3-(6-tert-Butyl-8-fluoro-1-oxo-1H-phthalazin-2-yl)-2-hydroxymethyl-phenyl]-1H-indole-3-carboxylic acid amide]
 | 10700 | CC(C)(C)c1ccc2c(=O)n(-c3cccc(-n4cc(C(N)=O)c5ccccc54)c3CO)ncc2c1 [Compound I-18, 1-[3-(6-tert-Butyl-1-oxo-1H-phthalazin-2-yl)-2-hydroxymethyl-phenyl]-1H-indole-3-carboxylic acid amide]
 | 48 | CC(C)(C)c1ccc2c(=O)n(-c3cccc(-n4cc(C(N)=O)c(Nc5ccc(C(=O)N6CCOCC6)cc5)n4)c3CO)ncc2c1 [Compound I-19, 1-[3-(6-tert-Butyl-1-oxo-1H-phthalazin-2-yl)-2-hydroxymethyl-phenyl]-3-[4-(morpholine-4-carbonyl)-phenylamino]-1H-pyrazole-4-carboxylic acid amide]
 | 10 | CC(C)(C)c1cc(F)c2c(=O)n(-c3cccc(-n4cc(C(N)=O)c(Nc5ccc(C(=O)N6CCOCC6)cc5)n4)c3CO)ncc2c1 [Compound I-20, 1-[3-(6-tert-Butyl-8-fluoro-1-oxo-1H-phthalazin-2-yl)-2-hydroxymethyl-phenyl]-3-[4-(morpholine-4-carbonyl)-phenylamino]-1H-pyrazole-4-carboxylic acid amide]
 | 260 | CC(C)(C)c1cc(F)c2c(=O)n(-c3cccc(-n4cc(C(N)=O)c(Nc5ccc(C(=O)N6CCOCC6)cc5)n4)c3)ncc2c1 [Compound I-21, 1-[3-(6-tert-Butyl-8-fluoro-1-oxo-1H-phthalazin-2-yl)-phenyl]-3-[4-(morpholine-4-carbonyl)-phenylamino]-1H-pyrazole-4-carboxylic acid amide]
3560 |  | CN(C)CCNc1ccc2c(C(N)=O)cn(-c3cccc(-n4ncc5cc(C(C)(C)C)cc(F)c5c4=O)c3CO)c2n1 [Compound I-51, 1-[3-(6-tert-Butyl-8-fluoro-1-oxo-1H-phthalazin-2-yl)-2-hydroxymethyl-phenyl]-6-(2-dimethylamino-ethylamino)-1H-pyrrolo[2,3-b]pyridine-3-carboxylic acid amide]
 | 1070 | CN(C)Cc1ccc2c(C(N)=O)cn(-c3cccc(-n4ncc5cc(C(C)(C)C)cc(F)c5c4=O)c3CO)c2n1 [Compound I-52, 1-[3-(6-tert-Butyl-8-fluoro-1-oxo-1H-phthalazin-2-yl)-2-hydroxymethyl-phenyl]-6-dimethylaminomethyl-1H-pyrrolo[2,3-b]pyridine-3-carboxylic acid amide]
0.12 |  | CC(=O)c1ccc(Nc2nn(-c3cccc(-n4ncc5cc(C(C)(C)C)ccc5c4=O)c3CO)cc2C(N)=O)cc1 [Compound I-53, 3-(4-Acetyl-phenylamino)-1-[3-(6-tert-butyl-1-oxo-1H-phthalazin-2-yl)-2-hydroxymethyl-phenyl]-1H-pyrazole-4-carboxylic acid amide]
0.95 |  | CC(C)(C)c1ccc2c(=O)n(-c3cccc(-n4cc(C(N)=O)c(Nc5ccccn5)n4)c3CO)ncc2c1 [Compound I-54, 1-[3-(6-tert-Butyl-1-oxo-1H-phthalazin-2-yl)-2-hydroxymethyl-phenyl]-3-(pyridin-2-ylamino)-1H-pyrazole-4-carboxylic acid amide]
0.39 |  | CN(C)Cc1ccc(Nc2nn(-c3cccc(-n4ncc5cc(C(C)(C)C)ccc5c4=O)c3CO)cc2C(N)=O)nc1 [Compound I-55, 1-[3-(6-tert-Butyl-1-oxo-1H-phthalazin-2-yl)-2-hydroxymethyl-phenyl]-3-(5-dimethylaminomethyl-pyridin-2-ylamino)-1H-pyrazole-4-carboxylic acid amide]
3700 |  | CC(C)(C)c1cc(F)c2c(=O)n(-c3cccc(-n4cc(C(N)=O)cn4)c3)ncc2c1 [Compound I-56, 1-[3-(6-tert-Butyl-8-fluoro-1-oxo-1H-phthalazin-2-yl)-phenyl]-1H-pyrazole-4-carboxylic acid amide]

Reference: patent publication US8729078B2, “Inhibitors of bruton's tyrosine kinase” (Hoffmann-La Roche Inc., priority 2011, dated 2014)
